From paper PMC8873473, “Antidiabetic, antioxidant, and anti-obesity effects of phenylthio-ethyl benzoate derivatives, and molecular docking study regarding α-amylase enzyme” (Scientific Reports, 2022)

Assays:
[1] = DPPH free radical scavenging test; conditions: 517 nm, 30 min incubation
Description: Four synthetic compounds were tested for the efficiency of scavenging free radicals matched with trolox and gallic acid as a basic. From the compounds, 1 mg/ml concentration solutions in methanol were prepared, and the solutions were used to prepare concentrations of 5, 10, 20, 30, 40, and 50 μg/ml. The DPPH reagent (0.002% w/v) was dissolved in methanol before mixed with working concentrations in ratios of 1:1:1 (compound:DPPH:methanol). The methanol solution was adopted as a blank. All the solutions were incubated for 30 min at room temperature in the dark. When the antioxidant compound reacts with DPPH, which can donate hydrogen, it is reduced the color changes from deep violet to light. Absorbance values were estimated by using a UV–Vis spectrophotometer at a wavelength of 517 nm. The DPPH inhibition percentage of all tested compound, trolox and gallic acid, was estimated according to the formula: Inhibitionpercentage=Ab-As/Ab×100%, where Ab is blank absorbance, and AS is sample absorbance. The IC50 values for tested synthetic compounds, trolox and gallic acid were determined from the curves.

[2] = target: T1, porcine pancreatic amylase (Sus scrofa, UniProt P00690); assay: α-Amylase inhibitory activity; type: biochemical; conditions: mean ± SD, triplicates; read-out: α-Amylase enzyme IC50 (converted)
T1 construct: purchased Frutarom (UK)
T1 sequence (P00690 16-511): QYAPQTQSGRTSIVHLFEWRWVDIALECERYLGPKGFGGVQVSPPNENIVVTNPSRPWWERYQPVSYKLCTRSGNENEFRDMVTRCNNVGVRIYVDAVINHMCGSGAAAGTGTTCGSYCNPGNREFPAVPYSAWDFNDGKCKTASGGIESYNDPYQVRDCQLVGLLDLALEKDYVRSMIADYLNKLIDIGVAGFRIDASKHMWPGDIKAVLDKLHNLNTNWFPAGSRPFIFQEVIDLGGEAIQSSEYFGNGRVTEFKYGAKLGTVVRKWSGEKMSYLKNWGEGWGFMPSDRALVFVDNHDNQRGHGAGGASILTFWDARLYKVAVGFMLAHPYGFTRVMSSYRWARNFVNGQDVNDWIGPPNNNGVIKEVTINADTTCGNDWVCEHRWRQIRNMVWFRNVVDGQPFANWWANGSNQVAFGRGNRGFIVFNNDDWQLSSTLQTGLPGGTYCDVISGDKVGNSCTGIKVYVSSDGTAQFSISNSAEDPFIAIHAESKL
Description: The α-amylase inhibitory evaluation was established following the Wickramaratne et al. procedure[13] with minor changes. Working solutions with concentrations of 10, 50, 100, 500, and 1000 µg/ml were produced from our synthesized compounds, diluting them with a buffer of Na2HPO4/NaH2PO4 (0.02 M), NaCl (0.006 M) at pH 6.9 and then brined up to 10 ml using a 10 ml volumetric flask. […] As percent inhibition, the enzyme inhibitory potential was expressed, and the following equation was utilized to estimate the IC50 dose for the samples[14]. %a-AmylaseInhibiton=Abs100%control-AbsSample/Abs100%Control×100

[3] = target: α-glucosidase; assay: α-Glucosidase (α-glycosidase) inhibitory activity, PNPG substrate; type: biochemical; conditions: mean ± SD, triplicates
Description: The inhibition of α-glucosidase activity by the synthesized molecules was measured. The α-glucosidase inhibitory activity is expressed as percentages of inhibition, which was calculated using the following formula: Inhibitoryeffect%=Ab-As/Ab∗100% where Ab and As are the absorbance values of the blank (containing PBS, α-glucosidase, and PNPG, the colored substrate of glucosidase) and the tested samples containing PBS, samples, α-glycosidase, and PNPG, respectively. The α-glucosidase activity was measured using 10 and 20 mg/ml of the synthesized molecules. Each concentration was recorded by using […] PNPG. The inhibitory pattern was assessed using a Lineweaver–Burk plot. The constant Ki of enzyme inhibitory effect was determined.

[4] = target: T2, porcine pancreatic lipase enzyme (Sus scrofa, UniProt P00591); assay: Porcine pancreatic lipase inhibition (p-nitrophenyl butyrate hydrolysis); type: biochemical; conditions: read-out: Anti-lipase activity IC50 (converted)
T2 construct: purchased Frutarom (UK)
T2 sequence (P00591 1-450): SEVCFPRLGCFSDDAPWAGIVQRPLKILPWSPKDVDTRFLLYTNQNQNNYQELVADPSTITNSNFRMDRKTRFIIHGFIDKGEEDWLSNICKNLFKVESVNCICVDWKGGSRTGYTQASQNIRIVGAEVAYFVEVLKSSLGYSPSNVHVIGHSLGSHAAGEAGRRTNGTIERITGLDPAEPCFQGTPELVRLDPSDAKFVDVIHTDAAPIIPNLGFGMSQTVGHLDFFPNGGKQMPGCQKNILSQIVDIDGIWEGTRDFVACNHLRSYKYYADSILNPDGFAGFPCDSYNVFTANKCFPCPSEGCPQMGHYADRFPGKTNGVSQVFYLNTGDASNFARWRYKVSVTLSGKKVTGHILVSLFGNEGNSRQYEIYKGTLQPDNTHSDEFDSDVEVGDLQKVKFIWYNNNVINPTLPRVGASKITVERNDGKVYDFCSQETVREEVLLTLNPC
Description: The lipase inhibitory activity was conducted by following the method in the references with minor modifications[19]–[21]. The prepared synthesized compounds solutions (1 mg/ml) were diluted with 10% DMSO to produce five different dilutions (0.2, 0.4, 0.6, 0.8, and 1 mg/ml). […] A Tris–HCl buffer was used to zero UV–Vis spectrophotometer at 405 nm.
The hydrolysis of p-nitrophenyl butyrate to p-nitrophenyl was used to measure the influence of the synthetic acid esters on the porcine pancreatic lipase enzyme.

[5] = β-Carotene linoleic acid antioxidant test; conditions: concentration 0.2 mg/ml; for Absorbance in β-carotene linoleic acid test: after 75 min, 470 nm; for Antioxidant efficiency in β-carotene linoleic acid test: compared with water (control) and α-tocopherol
Description: The activity of the synthesized compounds was assessed via performing a modified assay of Gazzani and Miller[17]. The method was based on the coupled oxidation of β-carotene and linoleic acid emulsion. The bleaching mechanism of β-carotene is produced from the hydro-peroxides created from linoleic acid[18]. During the oxidation process, the characteristic orange color of β-carotene and the chromophore will be lost. The presence of antioxidants can hinder the extent of the β-carotene bleaching. Briefly, 1 mg of β-carotene was dissolved in 2 ml of chloroform, 20 mg of linoleic acid, and 200 mg of Tween 20. A rotary evaporator entirely vaporized chloroform at a temperature of less than 30 °C under reduced pressure. Then 200 ml of distilled water saturated with oxygen was added to the flask, which was shaken vigorously for 30 min. A sample (5 ml) of the prepared emulsion was transferred to a series of tubes containing 0.1 ml of the synthesized compounds or tocopherol (2 mg/ml).
The control sample was prepared in the same way but without added antioxidants. Each sample type was prepared in triplicate. The samples were inserted in a water bath at 50 °C for 2 h. The absorbance of the samples was measured using a spectrophotometer at a wavelength of 470 nm, immediately after the preparation of the samples, and at 15-min intervals until the end (t = 120 min) of the experiment.

SMILES | Antioxidant activity IC50, DPPH test [1] [µg/mL] | IC50 [2] [µM] | α-Glycosidase enzyme IC50 [3] [µg/mL] | IC50 [4] [µM] | Absorbance in β-carotene linoleic acid test [5] | Antioxidant efficiency in β-carotene linoleic acid test [5]
O=C(O)c1cc(O)c(O)c(O)c1 [Gallic acid, gallic acid] | 31.72 ± 1.22 | – | – | – | – | –
O=C(OCCSc1ccccc1)c1cccc(O)c1 [Compound 2c] | – | 71.3 | 78.1 ± 0.76 | 1240 | – | –
O=C(OCCSc1ccccc1)c1ccc(O)cc1 [Compound 2d] | – | 48.9 | 114.17 ± 1.04 | 434 | – | –
O=C(OCCSc1ccccc1)c1ccccc1 [Compound 2a] | 47.01 ± 1.07 | 13.8 | 10.09 ± 0.70 | 418 | 1.04 | higher antioxidant efficiency
Cc1c(C)c2c(c(C)c1O)CC[C@@](C)(C(=O)O)O2 [Trolox, (S)-(–)-6 hydroxy-2,5,7,8-tetramethychroman-2-carboxylic acid] | 4.28 ± 0.47 | – | – | – | – | –
O=C(OCCSc1ccccc1)c1ccccc1O [Compound 2b] | – | 45.3 | 89.95 ± 0.49 | – | 0.84 | higher antioxidant efficiency
